In patent US8772511B2, “Azabicyclic carbamates and their use as alpha-7 nicotinic acetylcholine receptor agonists” (Bayer Intellectual Property GmbH, priority 2002, dated 2014):
Counter-ions that a name gives are not always drawn. Like-named read-outs stand apart in the source and are kept apart here.

Columns and labels:
α7 nAChR = α7 nAChR (Rattus norvegicus (Rat), UniProt Q05941); assay: Affinity for α7 nAChR by inhibition of [3H]-methyllycaconitine binding to rat brain membranes
Procedure: 1. Determination of the Affinity of Test Substances for α7 nAChR by Inhibition of [^3H]-Methyllycaconitine Binding to Rat Brain Membranes
The [^3H]-methyllycaconitine binding assay is a modification of the method described by Davies et al. in Neuropharmacol. 1999, 38, 679-690.
Rat brain tissue (hippocampus or whole brain) is homogenized in aqueous homogenization buffer (10% w/v, 0.32 M sucrose, 1 mM EDTA, 0.1 mM phenylmethylsulfonyl fluoride (PMSF), 0.01% (w/v) NaN3, pH 7.4, 4° C.) at 600 rpm in a glass homogenizer. The homogenate is centrifuged (1000×g, 4° C., 10 min) and the supernatant is removed. The pellet is resuspended (20% w/v) and the suspension is centrifuged (1000×g, 4° C., 10 min). The two supernatants are combined and centrifuged (15 000×g, 4° C., 30 min). The pellet obtained in this way is referred to as the P2 fraction.
The P2 pellet is suspended in binding buffer (50 mM Tris-HCl, 1 mM MgCl2, 120 mM NaCl, 5 mM KCl, 2 mM CaCl2, pH 7.4), and the suspension is centrifuged (15 000×g, 4° C., 30 min), twice.
The residue is resuspended in binding buffer to a concentration of […] and incubated in a volume of 250 μl (amount of membrane protein 0.4 mg) in the presence of 2 nM [3H]-methyllyeaconitine, 0.1% (w/v) BSA (bovine serum albumin) and various concentrations of the test substance at 21° C. for 60 min.
Incubation is then carried out in the presence of 1 μM α-bungarotoxin or 100 μM nicotine or 10 μM MLA (methyllycaconitine). The incubation is stopped by adding 4 ml of PBS (20 mM Na2HPO4, 5 mM KH2PO4, 150 mM NaCl, pH 7.4, 4° C.) and filtering through type A/E glass fiber filters (Gelman Sciences) which have previously been placed in 0.3% (v/v) polyethyleneimine (PEI) for 3 h. The filters are washed twice with 4 ml of PBS (4° C.), and the bound radioactivity is determined by scintillation measurement. All the assays are carried out in triplicate. The dissociation constant Ki of the test substance was determined from the IC50 of the compounds (concentration of the test substance at which 50% of the ligand bound to the receptor is displaced), the dissociation constant KD and the concentration L of [^3H]-methyllycaconitine using the equation Ki=IC50/(1+L/KD).

[1] = target: recombinant human 5-HT3 receptor (Homo sapiens (Human), UniProt P46098); assay: Affinity for 5-HT3 receptors through inhibition of [3H]GR65630 binding
recombinant human 5-HT3 receptor, sequence (P46098 24-478): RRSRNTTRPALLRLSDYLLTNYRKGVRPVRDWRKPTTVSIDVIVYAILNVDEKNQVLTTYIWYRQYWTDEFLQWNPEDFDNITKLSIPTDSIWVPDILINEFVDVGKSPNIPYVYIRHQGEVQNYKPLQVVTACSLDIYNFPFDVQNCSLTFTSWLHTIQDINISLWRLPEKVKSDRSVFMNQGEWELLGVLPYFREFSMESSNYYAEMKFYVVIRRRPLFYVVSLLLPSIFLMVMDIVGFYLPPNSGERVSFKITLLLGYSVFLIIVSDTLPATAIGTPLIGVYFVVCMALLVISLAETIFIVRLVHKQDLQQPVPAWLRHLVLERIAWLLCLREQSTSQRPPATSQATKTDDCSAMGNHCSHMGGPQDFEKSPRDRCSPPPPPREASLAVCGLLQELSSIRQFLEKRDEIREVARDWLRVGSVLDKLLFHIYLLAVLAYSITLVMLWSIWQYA
Procedure: 2. Determination of the Affinity of Test Substances for 5-HT3 Receptors Through Inhibition of [^3H]GR65630 Binding
Membranes from HEK293 cells which express recombinant human 5-HT3 receptor (RB-HS3, Receptor Biology, Inc., MD, USA) are diluted in accordance with the manufacturer's instructions in incubation buffer (50 mM Iris base, pH 7.4, 5 mM MgCl2, 0.5 mM EDTA, 0.1% (w/v) ascorbic acid, 10 μM pargyline and incubated in a volume of 200 μl (amount of membrane protein 3 μg) in the presence of 0.5 nM of the selective 5-HT3 receptor radio ligand [^3H]-GR65630 (NET 1011, Du Pont) and various concentrations of the test substance at 21° C. for 60 min. The nonspecific binding is determined by incubation in the presence of 100 μM 5-HT (5-hydroxytryptamine). The incubation is stopped by filtering through type A/E glass fiber filters (Gelman Sciences) or GF/B filters (Whatman) which have previously been placed in 0.3% (v/v) polyethyleneimine (PEI) for at least 1 h. The filters are washed three times with 3 ml of washing buffer (50 mM Tris-HCl, pH 7.4; 4° C.), and the bound radioactivity is determined by scintillation measurement. All the assays are carried out in triplicate. The dissociation constant Ki of the test substance is determined from the IC50 of the compounds (concentration of the test substance at which 50% of the ligand bound to the receptor is displaced), the dissociation constant KD and the concentration L of [^3H]GR65630 (Ki=IC50/(1+L/KD)).

[2] = [3H]-methyllycaconitine displacement, rat brain membranes, read-out: Ki
[3] = [3H]GR65630 displacement, membranes from HEK293 cells expressing human 5-HT3 receptor, read-out: Ki

α7 nAChR, sequence (Q05941 23-502 limits assumed): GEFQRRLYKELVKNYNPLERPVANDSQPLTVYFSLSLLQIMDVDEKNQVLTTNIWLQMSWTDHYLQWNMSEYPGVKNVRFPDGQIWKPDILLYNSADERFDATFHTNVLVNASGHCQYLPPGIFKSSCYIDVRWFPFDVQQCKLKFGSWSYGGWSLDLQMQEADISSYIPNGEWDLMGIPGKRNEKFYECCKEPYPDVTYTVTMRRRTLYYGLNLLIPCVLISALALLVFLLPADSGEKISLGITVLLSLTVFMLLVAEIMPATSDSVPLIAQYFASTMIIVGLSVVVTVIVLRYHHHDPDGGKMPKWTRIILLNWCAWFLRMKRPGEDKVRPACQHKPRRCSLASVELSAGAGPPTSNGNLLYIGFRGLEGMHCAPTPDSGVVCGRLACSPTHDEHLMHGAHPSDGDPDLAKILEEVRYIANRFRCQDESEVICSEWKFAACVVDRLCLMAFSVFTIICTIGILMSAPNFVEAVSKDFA

| Compound | Ki (α7 nAChR; [2]) [nM] | Ki [1] [nM] | Ki (α7 nAChR) [nM] | Ki [1, 3] [nM] |
| --- | --- | --- | --- | --- |
| COc1ccc(NC(=O)Nc2ccc3cc(C(=O)N[C@H]4CN5CCC4CC5)sc3c2)cc1 [Example 4, N-[(3R)-1-Azabicyclo[2.2.2]oct-3-yl]-6-({[(4-methoxyphenyl)amino]carbonyl}-amino)-1-benzothiophene-2-carboxamide hydrochloride] | 2.1 |  |  |  |
| O=C(NCCc1ccccc1)Nc1ccc2cc(C(=O)N[C@H]3CN4CCC3CC4)sc2c1 [Example 5, N-[(3R)-1-Azabicyclo[2.2.2]oct-3-yl]-6-({[(2-phenylethyl)amino]carbonyl}amino)-1-benzothiophene-2-carboxamide hydrochloride] | 22 | 12000 |  |  |
| N#Cc1cccc(NC(=O)Nc2ccc3cc(C(=O)N[C@H]4CN5CCC4CC5)sc3c2)c1 [Example 6, N-[(3R)-1-Azabicyclo[2.2.2]oct-3-yl]-6-({[(3-cyanophenyl)amino]carbonyl}amino)-1-benzothiophene-2-carboxamide hydrochloride] |  |  | 7.9 | 1700 |
| O=C(Nc1ccc2cc(C(=O)N[C@H]3CN4CCC3CC4)sc2c1)Nc1c(F)cccc1F [Example 11, N-[(3R)-1-Azabicyclo[2.2.2]oct-3-yl]-6-({[(2,6-difluorophenyl)amino]carbonyl}-amino)-1-benzothiophene-2-carboxamide hydrochloride] |  |  | 0.4 | 5500 |
| COc1cc(NC(=O)Nc2ccc3cc(C(=O)N[C@H]4CN5CCC4CC5)sc3c2)cc(OC)c1OC [Example 14, N-[(3R)-1-Azabicyclo[2.2.2]oct-3-yl]-6-({[(3,4,5-trimethoxyphenyl)amino]-carbonyl}amino)-1-benzothiophene-2-carboxamide hydrochloride] |  | 6900 |  |  |
| COc1cccc(NC(=O)Nc2ccc3cc(C(=O)N[C@H]4CN5CCC4CC5)sc3c2)c1 [Example 16, N-[(3R)-1-Azabicyclo[2.2.2]oct-3-yl]-6-[({[3-methoxyphenyl]amino}carbonyl)-amino]-1-benzothiophene-2-carboxamide hydrochloride] |  |  | 4.3 | 2100 |
| O=C(Nc1ccccc1)Nc1cccc2cc(C(=O)N[C@H]3CN4CCC3CC4)sc12 [Example 21, 7-[(Anilinocarbonyl)amino]-N-[(3R)-1-azabicyclo[2.2.2]oct-3-yl]-1-benzothiophene-2-carboxamide hydrochloride] |  |  | 15 | 1600 |
| COc1ccc(NC(=O)Nc2ccc3cc(C(=O)N[C@H]4CN5CCC4CC5)oc3c2)cc1 [Example 22, N-[(3R)-1-Azabicyclo[2.2.2]oct-3-yl]-6-({[(4-methoxyphenyl)amino]carbonyl}-amino)-1-benzofuran-2-carboxamide hydrochloride] | < 1 |  |  |  |
